{
  "source": "patent US20220016125A1",
  "about": "“RIBOFLAVIN FOR TREATING COLLAGENOUS TISSUES IN THE DISEASES OF JOINTS, PARTICULARLY OF INVERTEBRAL DISCS” (Albert-Ludwigs-Universitat Freiburg, priority 2018, published 2022)",
  "key": {"[1]": {"system": "collagen fibers in the transition zone between the annulus fibrosus and nucleus pulposus", "assay": "Riboflavin/UV crosslinking of collagen fibers in bovine intervertebral disc cryosections, autofluorescence microscopy", "conditions": "10 bovine samples, 0.6 mm slices; 0.1 mL of 0.25% riboflavin solution twice at 30 s interval; UV 370 nm, 9 mW/cm^2, two minutes", "description": "(§1) Five freshly frozen bovine intervertebral discs and two freshly frozen human intervertebral discs from the Anatomy department of the University of Freiburg were used for the experiments (see FIG. 6).\n(§2) The intervertebral discs were thinly cut into 0.6 mm thick slices using a cryomicrotome and placed on glass plates (see FIG. 7). The thin discs arise from the transition zone between the annulus fibrosus and nucleus pulposus, which is indicated by a rectangle in FIG. 6.\n(§3) A total of 10 bovine and 10 human samples were prepared and examined for the experiments.\n(§4) Before treatment with riboflavin, the samples were imaged by autofluorescence microscopy to visualize the collagen fibers. The architecture, orientation and crosslinking density of the collagen fibers in the samples before treatment are shown in FIGS. 9 a) and 10 a).\n(§5) To crosslink the collagen fibers, 0.1 mL of a riboflavin solution at a concentration of 0.25% was administered twice at a time interval of 30 seconds. The sample was then irradiated with UV light.\n(§6) A UV radiation source with an average wavelength of 370 nm (365-375 nm) was used to irradiate the samples. […]\n(§7) After the treatment, the collagen fibers were reimaged using autofluorescence microscopy in order to visualize the identical sample area. This allows changes in the crosslinking density of the collagen fibers to be detected."}, "[2]": {"system": "collagen fibers in the transition zone between the annulus fibrosus and nucleus pulposus", "assay": "Riboflavin/UV crosslinking of collagen fibers in human intervertebral disc cryosections, autofluorescence microscopy", "conditions": "10 human samples, 0.6 mm slices; 0.1 mL of 0.25% riboflavin solution twice at 30 s interval; UV 370 nm, 9 mW/cm^2, two minutes", "description": "as §1, §2, §3, §4, §5, §6, §7"}, "[3]": {"system": "bovine intervertebral discs", "assay": "Young's modulus of fresh bovine intervertebral discs before and after UV irradiation (Biomomentum Mach-1)", "conditions": "8 mM riboflavin (riboflavin 5′-phosphate sodium salt hydrate) in PBS, 15 min soak, 365 nm UVA, 3.5 mW/cm^2, 15 minutes", "description": "For the characterization, Young's modulus or modulus of elasticity (Akhtar et. Al 2011) was determined locally on an established device (Biomomentum Mach-1 Biomomentum Inc.; Sim et al. 2014).\nFresh bovine tails were provided from the local meat processing plant within 2 hours of slaughter. The paravertebral structure was removed (FIG. 11).\nBovine intervertebral discs (IVDs), which are attached to the vertebral body, were isolated (FIG. 12).\nIn order to stabilize the samples on the device, the bovine vertebral bodies with attached intervertebral discs were fixed in PMMA bone cement (FIG. 13).\nWith the aid of the camera of the Biomomentum device, the surface of the bovine intervertebral discs was measured with respect to their biomechanical properties (Young's modulus) (FIG. 14).\nA solution with 8 mM riboflavin (riboflavin 5′-phosphate sodium salt hydrate, Sigmaaldrich) in PBS (phosphate buffered saline solution) and pH: 7.4 water (Thermofisher) was used to soak the exposed surface of the bovine intervertebral discs for 15 minutes (dark mode). Immediately afterwards, the samples were placed in the Biomomentum device for analysis (dark mode).\nAfter the analysis, the same sample was irradiated homogeneously with 365 nm UVA light (Opsytech Dr. Groebel-UV LED series L) at 3.5 mW/cm^2 for 15 minutes. A second analysis of the previously measured positions followed.\nA total of 38 measurements were carried out on 15 healthy bovine intervertebral discs.\nThe percentage stiffening corresponds to the percentage increase in Young's modulus after UV irradiation, compared to the value measured before UV irradiation."}, "[4]": {"conditions": "compared to value before UV irradiation"}},
  "data": [
    {"smiles": "Cc1cc2nc3c(=O)[nH]c(=O)nc-3n(C[C@H](O)[C@H](O)[C@H](O)CO)c2cc1C", "note": "[riboflavin, 7,8-dimethyl-10-(D-ribit-1-yl)-isoalloxazine]", "values": [
      {"measurement": "crosslinking density of the collagen fibers", "setting": "[1]", "value": "visually evident increase in the crosslinking density"},
      {"measurement": "crosslinking density of the collagen fibers", "setting": "[2]", "value": "visually evident increase in the crosslinking density"},
      {"measurement": "elastic properties (Young's modulus) after UV irradiation", "setting": "[3]; 38 measurements on 15 discs", "value": "Stiffening or reinforcement of the elastic properties (Young's modulus) was observed in all samples"},
      {"measurement": "maximum stiffening (percentage increase in Young's modulus after UV irradiation)", "setting": "[3]; [4]", "value": 348, "unit": "%"},
      {"measurement": "minimum stiffening or reinforcement (percentage increase in Young's modulus after UV irradiation)", "setting": "[3]; [4]", "value": 52, "unit": "%"}
    ]}
  ]
}
